Data on three molecules can be found in publication PMC10992250, “Enzymatic synthesis of high-titer nicotinamide mononucleotide with a new nicotinamide riboside kinase and an efficient ATP regeneration system” (Bioresources and Bioprocessing, 2022).

Data set [1] has as its target T1, Gbst-AcK (Geobacillus stearothermophilus, UniProt A0ACH1E729).
T1 construct: gene ackA; codon-optimised gene in pET21a (NdeI/XhoI, no stop codon; C-terminal vector His tag), E. coli BL21(DE3), Ni column
T1 sequence (A0ACH1E729 1-396): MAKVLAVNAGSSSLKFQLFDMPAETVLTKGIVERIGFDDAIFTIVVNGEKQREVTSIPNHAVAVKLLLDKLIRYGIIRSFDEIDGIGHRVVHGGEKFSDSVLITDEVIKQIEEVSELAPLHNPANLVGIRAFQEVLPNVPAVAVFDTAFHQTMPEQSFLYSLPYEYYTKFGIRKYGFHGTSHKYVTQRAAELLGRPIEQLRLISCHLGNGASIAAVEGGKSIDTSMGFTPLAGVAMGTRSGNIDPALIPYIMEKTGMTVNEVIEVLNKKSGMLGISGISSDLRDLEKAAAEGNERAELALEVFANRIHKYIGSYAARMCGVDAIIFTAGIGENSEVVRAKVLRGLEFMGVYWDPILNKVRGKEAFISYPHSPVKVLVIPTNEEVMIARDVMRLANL
The data set can be described thus: HPLC of ATP formation. The class given is biochemical. The following applies: […] ADP, […] AcP, […] MgCl2, […] KPB pH […] °C.

Data set [2] has as its system T2, NC(=O)c1ccc[n+]([C@@H]2O[C@H](CO)[C@@H](O)[C@H]2O)c1.
T2 construct: codon-optimised gene in pET21a (NdeI/XhoI, no stop codon; C-terminal vector His tag), E. coli BL21(DE3), Ni column; about 27 kDa
In words: purified protein. The class given is biochemical, Kluyveromyces marxianus. The following applies: apparent, 0.5 mM ATP, 12 mM MgCl2, 50 mM Tris-HCl pH 7.5, 50 mM NaCl, 50 mM KCl, 0.01% BSA, 30 °C.

Data set [3] has as its system T3, Nc1ncnc2c1ncn2[C@@H]1O[C@H](COP(=O)(O)OP(=O)(O)OP(=O)(O)O)[C@@H](O)[C@H]1O.
T3 construct: codon-optimised gene in pET21a (NdeI/XhoI, no stop codon; C-terminal vector His tag), E. coli BL21(DE3), Ni column; about 27 kDa
In words: purified protein. The data set is classed as biochemical, Kluyveromyces marxianus. The conditions noted are these: apparent, 0.5 mM NR, 12 mM MgCl2, 50 mM Tris-HCl pH 7.5, 50 mM NaCl, 50 mM KCl, 0.01% BSA, 30 °C.

One may read the Km as the concentration of substrate that gives half-maximal velocity.

With `Nc1ncnc2c1ncn2[C@@H]1O[C@H](COP(=O)(O)OP(=O)(O)O)[C@@H](O)[C@H]1O` [ADP], in data set [1], the “HPLC of ATP formation” value is reported as “assayed as the generation of ATP from ADP with a sufficient amount of AcP”. Consider “Klm-NRK (Kluyveromyces marxianus DMKU3-1042)”, for which the Km in data set [2] was 45 ± 11 µM; in data set [3], 70 ± 6 µM. On to `CC(=O)OP(=O)(O)O` [AcP], for which, in data set [1], the “HPLC of ATP formation” value is “assayed as the generation of ATP from ADP with a sufficient amount of AcP”.
